Experimental data taken from patent US20250186627A1, “RADIOLABELED COMPOUNDS TARGETING THE PROSTATE-SPECIFIC MEMBRANE ANTIGEN” (PROVINCIAL HEALTH SERVICES AUTHORITY, priority 2022, published 2025).
*1 amine or outer side, *2 acyl side, *3 side chain or, on linkers, in order; H or OH if unused. Where a SMILES comes first, the peptide text is derived from it. [ ]: non-standard residue; d: D form. The star is where a group is joined. ξ: configuration not given here. Butanoyl(4-(4-NO2Ph)) = O=C(CCCc1ccc([N+](=O)[O-])cc1)*; DOTA = O=C(O)CN1CCN(CC(=O)O)CCN(CC(=O)*)CCN(CC(=O)O)CC1; ξAla(9-anthryl) = NC(Cc1c2ccccc2cc2ccccc12)C(=O)O; X2 = O=C(NC(CCCCN*)C(=O)O)NC(CC(F)C(=O)O)C(=O)O; X1 = O=C(C1CCC(CN[*:1])CC1)[*:2]; ξK = NCCCCC(N)C(=O)O

System: NRG-mice bearing LNCaP tumors
Assay: Biodistribution (and PET/SPECT imaging) in NRG-mice bearing LNCaP tumors
Assay type: in vivo
Settings: Avg
Experimental: LNCaP cell line was obtained from ATCC (LNCaP clone FGC, CRL-1740). It was established from a metastatic site of left supraclavicular lymph node of human prostatic adenocarcinoma. Cells were cultured in PRMI 1640 medium supplemented with 10% FBS, penicillin (100 U/mL) and streptomycin (100 μg/mL) at 37° C. in a humidified incubator containing 5% CO2. Cells grown to 80-90% confluence were then washed with sterile phosphate-buffered saline (1×PBS pH 7.4) and trypsinization. The collected cells number was counted with a Hausser Scientific (Horsham, PA) Hemacytometer. Approximately 10 million LNCaP cells were inoculated into the left dorsal flank of immunocomprised NRG mice. The tumours were allowed to grow for 4-6 weeks and used for imaging and biodistribution studies when a volume of 200-600 mm^3 was reached.
PET imaging experiments were conducted using Siemens Inveon micro PET/CT scanner. SPECT imaging experiments were conducted using an MILabs micro SPECT/CT scanner. Each tumor bearing mouse was injected 4-6 MBq of ^68Ga or 18.5 MBq of ^177Lu labeled tracer through the tail vein under anesthesia (2% isoflurane in oxygen). The mice were allowed to recover and roam freely in their cage. At pre-defined time point, the mice were sedated again with 2% isoflurane in oxygen inhalation and positioned in the scanner. A 10-min CT scan was conducted first for localization and attenuation correction after segmentation for reconstructing the PET or SPECT images. Then, a 10-min static PET imaging or a one hour (30 min×2 frames) of static SPECT scan was performed to determined uptake in tumor and other organs. The mice were kept warm by a heating pad during acquisition.
For biodistribution studies, the mice were injected with the radiotracer as described above. The mice were anesthetized with 2% isoflurane inhalation, and euthanized by CO2 inhalation. Blood was withdrawn immediately from the heart, and the organs/tissues of interest were collected. The collected organs/tissues were weighed and counted using a Perkin Elmer (Waltham, MA) Wizard2 2480 gamma counter. The uptake in each organ/tissue was normalized to the injected dose (radioactivity) using a standard curve, and expressed as the percentage of the injected dose per gram of tissue (% ID/g).

## O=C([O-])CN1CCN(CC(=O)[O-])CCN(CC(=O)NCCCCC(NC(=O)CNC(=O)CCCc2ccc([N+](=O)[O-])cc2)C(=O)NCC(=O)NCC2CCC(C(=O)NC(Cc3c4ccccc4cc4ccccc34)C(=O)NCCCCC(NC(=O)NC(CC(F)C(=O)O)C(=O)O)C(=O)O)CC2)CCN(CC(=O)[O-])CC1.[68Ga+3] (stereo not shown) [^68Ga-CCZ02025] ({Butanoyl(4-(4-NO2Ph))}-G[ξK](DOTA)G[X1][ξAla(9-anthryl)]-X2)
1 h p.i.
  Biodistribution: Adrenal gland: 5.96 % ID/g
  Biodistribution: Blood: 19.40 % ID/g
  Biodistribution: Bone: 1.01 % ID/g
  Biodistribution: Brain: 0.30 % ID/g
  Biodistribution: Fat: 2.74 % ID/g
  Biodistribution: Heart: 4.13 % ID/g
  Biodistribution: Intestine: 1.93 % ID/g
  Biodistribution: LNCaP tumor: 9.19 % ID/g
  Biodistribution: Liver: 4.07 % ID/g
  Biodistribution: Lungs: 8.79 % ID/g
  Biodistribution: Muscle: 1.48 % ID/g
  Biodistribution: Pancreas: 1.89 % ID/g
  Biodistribution: Salivary gland: 3.24 % ID/g
  Biodistribution: Seminal gland: 2.55 % ID/g
  Biodistribution: Spleen: 1.90 % ID/g
  Biodistribution: Stomach: 0.59 % ID/g
  Biodistribution: Testes: 2.65 % ID/g
  Biodistribution: Thyroid: 4.11 % ID/g
  Biodistribution: Urine: 104.40 % ID/g
  Biodistribution: kidney: 14.01 % ID/g
3 h p.i.
  Biodistribution: Adrenal gland: 4.26 % ID/g
  Biodistribution: Blood: 13.83 % ID/g
  Biodistribution: Bone: 1.27 % ID/g
  Biodistribution: Brain: 0.22 % ID/g
  Biodistribution: Fat: 1.79 % ID/g
  Biodistribution: Heart: 2.86 % ID/g
  Biodistribution: Intestine: 1.12 % ID/g
  Biodistribution: LNCaP tumor: 18.79 % ID/g
  Biodistribution: Liver: 3.21 % ID/g
  Biodistribution: Lungs: 5.21 % ID/g
  Biodistribution: Muscle: 0.95 % ID/g
  Biodistribution: Pancreas: 1.13 % ID/g
  Biodistribution: Salivary gland: 2.47 % ID/g
  Biodistribution: Seminal gland: 1.83 % ID/g
  Biodistribution: Spleen: 1.17 % ID/g
  Biodistribution: Stomach: 0.57 % ID/g
  Biodistribution: Testes: 2.80 % ID/g
  Biodistribution: Thyroid: 2.41 % ID/g
  Biodistribution: Urine: 101.55 % ID/g
  Biodistribution: kidney: 9.90 % ID/g
